The values below come from patent US20100183710A1, “OMEPRAZOLE FORM B” (priority 2005, published 2010).

A short description of series [1]: Long-term stability study of omeprazole Form B (polymorphic form by XRPD). It is filed as physicochemical. From the text: Omeprazole Form B prepared using a method similar to the one described in Example 1 was subjected to long-term stability studies. Each sample was packed in a clear polythene bag, filled with nitrogen, tied with a tag and kept in a black polythene bag along with silica pouch filled with nitrogen and then sealed. Finally, the above triple laminated bag along with silica pouch was sealed and stored in a HDPE drum. The color, moisture content, purity and the polymorphic form of the product was checked at intervals during storage. The results for compliance of polymorphic form are tabulated below, where “ND” means not detected by XRPD. 950 mg of Form B and 50 mg of Form A of Omeprazole were weighed and combined to form a weight ratio of Form B to Form A of 95:5. The mixture was ground three times in a mortar to get a uniform powder. [table] FIG. 6 is a scan for pure omeprazole Form B. FIG. 5 is the XRPD scan for the standard, containing 5% by weight of omeprazole Form A, and the scan of FIG. 6 has been superimposed for comparison.

For series [2] the following is noted: as described in U.S. Pat. No. 6,150,380; cited from earlier work.

Regarding `COc1ccc2[nH]c([S+]([O-])Cc3ncc(C)c(OC)c3C)nc2c1` (centres unmarked) [Omeprazole Form B, 5-Methoxy-2-[[(4-methoxy-3,5-dimethyl-2-pyridinyl)methyl]sulfinyl]-1H-benzimidazole], the “Color, moisture content and purity of the product during storage” value in series [1] (long-term stability storage) is on record as “remained substantially the same”. Besides, in series [1] (storage in a container for 6 months at 40° C. and 60% relative humidity), the “Conversion into crystalline Form A during storage” value is reported as “does not convert into crystalline Form A”. The “Conversion into Form A” value in series [2] is “can completely or partially convert into Form A”.

As to `COc1ccc2[nH]c([S+]([O-])Cc3ncc(C)c(OC)c3C)nc2c1` (centres unmarked) [omeprazole Form A, 5-Methoxy-2-[[(4-methoxy-3,5-dimethyl-2-pyridinyl)methyl]sulfinyl]-1H-benzimidazole], in series [2], the “Hygroscopicity relative to omeprazole Form B” value is given as “less hygroscopic” and the “Thermodynamic stability relative to omeprazole Form B” value was “thermodynamically more stable”.
